{"source": "ChEMBL document CHEMBL4627415", "about": "“Design and Structural Optimization of Dual FXR/PPARδ Activators” (J Med Chem, 2020)", "format_in_all_cases": "cell-based", "key": {"[1]": {"molecular_target": "T1, Bile acid receptor (Homo sapiens) (UniProt Q96RI1)", "T1 sequence (whole entry)": "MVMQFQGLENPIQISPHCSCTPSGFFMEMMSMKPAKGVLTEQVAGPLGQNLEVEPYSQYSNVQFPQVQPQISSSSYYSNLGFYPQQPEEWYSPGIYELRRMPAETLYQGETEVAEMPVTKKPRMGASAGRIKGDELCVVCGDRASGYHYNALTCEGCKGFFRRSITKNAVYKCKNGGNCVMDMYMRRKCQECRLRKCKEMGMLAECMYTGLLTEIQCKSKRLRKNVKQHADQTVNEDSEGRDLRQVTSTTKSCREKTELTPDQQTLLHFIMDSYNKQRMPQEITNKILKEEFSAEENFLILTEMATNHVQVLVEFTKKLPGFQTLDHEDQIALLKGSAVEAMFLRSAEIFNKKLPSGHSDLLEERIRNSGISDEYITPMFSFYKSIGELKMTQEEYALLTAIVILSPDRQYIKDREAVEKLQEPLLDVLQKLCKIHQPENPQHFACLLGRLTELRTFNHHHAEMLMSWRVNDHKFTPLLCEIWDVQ", "experiment": "Activation of FXR in human HepG2 cells assessed as increase in BSEP mRNA expression at 3 uM incubated for 8 hrs by quantitative real time PCR analysis"}, "[2]": {"molecular_target": "T1, Bile acid receptor (Homo sapiens)", "experiment": "Activation of human FXR LBD expressed in HEK293T cells assessed as induction of receptor activation at 1 uM incubated for 12 to 14 hrs by luciferase reporter gene assay relative to GW4064", "conditions": "HEK-293T"}, "[3]": {"molecular_target": "T2, Peroxisome proliferator-activated receptor delta (Homo sapiens) (UniProt Q03181)", "T2 sequence (whole entry)": "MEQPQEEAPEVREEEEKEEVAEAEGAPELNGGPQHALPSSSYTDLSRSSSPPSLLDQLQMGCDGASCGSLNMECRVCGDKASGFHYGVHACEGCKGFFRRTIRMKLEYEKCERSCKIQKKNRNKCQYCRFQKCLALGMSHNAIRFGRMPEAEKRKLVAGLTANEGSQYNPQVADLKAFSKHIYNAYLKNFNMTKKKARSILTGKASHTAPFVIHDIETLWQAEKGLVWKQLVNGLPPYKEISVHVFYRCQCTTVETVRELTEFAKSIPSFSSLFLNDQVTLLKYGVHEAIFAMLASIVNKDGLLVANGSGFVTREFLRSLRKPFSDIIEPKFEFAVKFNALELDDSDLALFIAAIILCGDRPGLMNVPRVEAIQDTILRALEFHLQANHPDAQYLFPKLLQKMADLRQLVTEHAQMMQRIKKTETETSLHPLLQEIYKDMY", "experiment": "Activation of human PPAR-delta LBD expressed in HEK293T cells assessed as induction of receptor activation at 1 uM incubated for 12 to 14 hrs by luciferase reporter gene assay relative to L165,041", "conditions": "HEK-293T"}}, "note": "Calls of active or inactive are those of the source. No cut-off for these calls is given here."}
{"compound": "CC(C)c1onc(-c2c(Cl)cccc2Cl)c1COc1ccc(CNc2ccc(CC(=O)O)cc2)c(Cl)c1", "values": [{"measurement": "Activity", "setting": "[1]", "value": "Active"}, {"measurement": "%max", "setting": "[2]", "value": 31, "unit": "%"}, {"measurement": "%max", "setting": "[3]", "value": 17, "unit": "%"}]}
